Laboratory results as given in PubChem BioAssay AID328 (DTP/NCI, 2004).
Where “and” joins values, the source holds several entries; their conditions need not be identical. Equal values may be shown once. Toxic doses and inconclusive results are not listed.

System: BDF1 mice, P388 leukemia ip, median survival T/C
Assay: NCI In Vivo Anticancer Drug Screen. Data for tumor model P388 Leukemia (intraperitoneal) in B6D2F1 (BDF1) mice
Settings: endpoint: median survival time, higher = longer survival
In short: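 In tumour-bearing mice, survival after compound treatment is set against the vehicle group and given as a quotient.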

[1] = dose: 6.25 mg/kg/injection, schedule: Q01DX009 (ip), vehicle: saline with Tween-80
[2] = dose: 25.0 mg/kg/injection, schedule: Q01DX009 (ip), vehicle: saline with Tween-80
[3] = dose: 50.0 mg/kg/injection, schedule: Q01DX009 (ip), vehicle: saline with Tween-80
[4] = dose: 100.0 mg/kg/injection, schedule: Q01DX009 (ip), vehicle: saline with Tween-80
[5] = dose: 200.0 mg/kg/injection, schedule: Q01DX009 (ip), vehicle: saline with Tween-80
[6] = dose: 200.0 mg/kg/injection, schedule: Q01DX009 (ip), vehicle: Klucel (hydroxypropylcellulose) (HPC)
[7] = dose: 12.5 mg/kg/injection, schedule: Q01DX009 (ip), vehicle: Klucel (hydroxypropylcellulose) (HPC)
[8] = dose: 25.0 mg/kg/injection, schedule: Q01DX009 (ip), vehicle: Klucel (hydroxypropylcellulose) (HPC)
[9] = dose: 50.0 mg/kg/injection, schedule: Q01DX009 (ip), vehicle: Klucel (hydroxypropylcellulose) (HPC)
[10] = dose: 12.5 mg/kg/injection, schedule: Q01DX009 (ip), vehicle: water
[11] = dose: 25.0 mg/kg/injection, schedule: Q01DX009 (ip), vehicle: water
[12] = dose: 50.0 mg/kg/injection, schedule: Q04DX003 (ip), vehicle: water
[13] = dose: 100.0 mg/kg/injection, schedule: Q01DX009 (ip), vehicle: water
[14] = dose: 100.0 mg/kg/injection, schedule: Q04DX003 (ip), vehicle: water
[15] = dose: 200.0 mg/kg/injection, schedule: Q04DX003 (ip), vehicle: water
[16] = dose: 400.0 mg/kg/injection, schedule: Q04DX003 (ip), vehicle: water
[17] = dose: 100.0 mg/kg/injection, schedule: Q04DX003 (ip), vehicle: other
[18] = dose: 200.0 mg/kg/injection, schedule: Q04DX003 (ip), vehicle: other

COc1ccc(/C=C2\N=C(c3ccccc3)OC2=O)cc1OC
T/C (dose: 100.0 mg/kg/injection, schedule: Q01DX001 (ip), vehicle: saline): 90 % of control
T/C (dose: 200.0 mg/kg/injection, schedule: Q01DX001 (ip), vehicle: saline): 104 % of control
T/C (dose: 400.0 mg/kg/injection, schedule: Q01DX001 (ip), vehicle: saline): 104 % of control

CCN(CC)CCNc1ccc([N+](=O)[O-])c2sc3ccccc3c(=O)c12
T/C (dose: 50.0 mg/kg/injection, schedule: Q01DX009 (ip), vehicle: saline sonified): 177 % of control
T/C (dose: 100.0 mg/kg/injection, schedule: Q01DX009 (ip), vehicle: saline sonified): 95 % of control

O=[N+]([O-])c1cccc(/C=C/C=C/c2ccc(S(=O)(=O)F)cc2Cl)c1
T/C (dose: 100.0 mg/kg/injection, schedule: Q01DX001 (ip), vehicle: Klucel (hydroxypropylcellulose) (HPC)): 100 % of control
T/C (dose: 200.0 mg/kg/injection, schedule: Q01DX001 (ip), vehicle: Klucel (hydroxypropylcellulose) (HPC)): 95 % of control
T/C (dose: 400.0 mg/kg/injection, schedule: Q01DX001 (ip), vehicle: Klucel (hydroxypropylcellulose) (HPC)): 95 % of control

C=C1C(=O)[C@]23C[C@H]1CC[C@H]2[C@@]12CO[C@@H](O)[C@@H]1C(C)(C)[C@@H](O)C[C@@H]2OC3=O
T/C (dose: 3.13 mg/kg/injection, schedule: Q01DX009 (ip), vehicle: saline with Tween-80): 112 % of control
T/C [1]: 118 % of control
T/C [2]: 117 % of control
T/C [3]: 119 % of control and 121 % of control
T/C [4]: 112 % of control
T/C [5]: 120 % of control

COc1ccc(OC)c(NC(=O)C2CC2)c1
T/C (dose: 75.0 mg/kg/injection, schedule: Q01DX009 (ip), vehicle: saline with Tween-80): 100 % of control
T/C (dose: 100.0 mg/kg/injection, schedule: Q04DX003 (ip), vehicle: saline sonified): 109 % of control
T/C (dose: 150.0 mg/kg/injection, schedule: Q01DX009 (ip), vehicle: saline with Tween-80): 100 % of control
T/C (dose: 200.0 mg/kg/injection, schedule: Q04DX003 (ip), vehicle: saline sonified): 113 % of control
T/C (dose: 300.0 mg/kg/injection, schedule: Q01DX009 (ip), vehicle: saline with Tween-80): 100 % of control
T/C (dose: 400.0 mg/kg/injection, schedule: Q04DX003 (ip), vehicle: saline sonified): 100 % of control

CN(C)c1ccc(C=C(C#N)C#N)cc1
T/C (dose: 100.0 mg/kg/injection, schedule: Q04DX003 (ip), vehicle: Klucel (hydroxypropylcellulose) (HPC)): 100 % of control
T/C [6]: 90 % of control
T/C (dose: 200.0 mg/kg/injection, schedule: Q04DX003 (ip), vehicle: Klucel (hydroxypropylcellulose) (HPC)): 100 % of control
T/C (dose: 400.0 mg/kg/injection, schedule: Q01DX009 (ip), vehicle: Klucel (hydroxypropylcellulose) (HPC)): 113 % of control
T/C (dose: 400.0 mg/kg/injection, schedule: Q04DX003 (ip), vehicle: Klucel (hydroxypropylcellulose) (HPC)): 90 % of control

CC(=O)Nc1ccc2c(c1)C(N)c1ccccc1-2 (stereo not given)
T/C [3]: 100 % of control
T/C [4]: 104 % of control
T/C (dose: 133.0 mg/kg/injection, schedule: Q01DX009 (ip), vehicle: Klucel (hydroxypropylcellulose) (HPC)): 95 % of control
T/C [6]: 105 % of control
T/C [5]: 87 % of control
T/C (dose: 300.0 mg/kg/injection, schedule: Q01DX009 (ip), vehicle: Klucel (hydroxypropylcellulose) (HPC)): 100 % of control

Cc1c(Br)c(=O)n(-c2ccccc2)n1C
T/C [7]: 106 % of control
T/C [8]: 98 % of control
T/C [9]: 100 % of control and 106 % of control
T/C (dose: 100.0 mg/kg/injection, schedule: Q01DX009 (ip), vehicle: Klucel (hydroxypropylcellulose) (HPC)): 106 % of control

COc1ccc(C2=CC(c3ccc4c(c3)OCO4)c3c(c4ccccc4oc3=O)O2)cc1OC (stereo not given)
T/C [10]: 96 % of control
T/C [11]: 106 % of control
T/C (dose: 50.0 mg/kg/injection, schedule: Q01DX009 (ip), vehicle: water): 102 % of control
T/C [12]: 101 % of control
T/C [13]: 93 % of control
T/C [14]: 110 % of control
T/C [15]: 94 % of control
T/C [16]: 94 % of control

Cc1ccc(S(=O)(=O)OCCN(CCOS(=O)(=O)c2ccc(C)cc2)c2cc(OCc3ccccc3)cc(OCc3ccccc3)c2)cc1
T/C (dose: 1.56 mg/kg/injection, schedule: Q01DX009 (ip), vehicle: water): 90 % of control and 99 % of control
T/C (dose: 3.12 mg/kg/injection, schedule: Q01DX009 (ip), vehicle: water): 93 % of control and 100 % of control
T/C (dose: 6.25 mg/kg/injection, schedule: Q01DX009 (ip), vehicle: water): 98 % of control and 110 % of control
T/C [10]: 91 % of control and 100 % of control
T/C [11]: 93 % of control and 100 % of control
T/C [12]: 91 % of control
T/C [13]: 88 % of control
T/C [14]: 89 % of control
T/C [15]: 97 % of control
T/C [16]: 97 % of control

ClC1CC[N-]CC1.ClC1CC[N-]CC1.[Cl][Pt+2]([Cl])([Cl])[Cl]
T/C [7]: 182 % of control
T/C [8]: 221 % of control
T/C [9]: 115 % of control

O=c1cc(-c2ccccc2)ss1
T/C [1]: 98 % of control
T/C (dose: 12.5 mg/kg/injection, schedule: Q01DX009 (ip), vehicle: saline with Tween-80): 102 % of control and 122 % of control
T/C [3]: 110 % of control and 121 % of control
T/C (dose: 50.0 mg/kg/injection, schedule: Q04DX003 (ip), vehicle: saline with Tween-80): 89 % of control
T/C [4]: 121 % of control and 122 % of control
T/C [17]: 105 % of control
T/C (dose: 100.0 mg/kg/injection, schedule: Q04DX003 (ip), vehicle: saline with Tween-80): 99 % of control and 100 % of control
T/C (dose: 178.0 mg/kg/injection, schedule: Q04DX003 (ip), vehicle: other): 111 % of control
T/C [5]: 110 % of control
T/C [18]: 100 % of control
T/C (dose: 200.0 mg/kg/injection, schedule: Q04DX003 (ip), vehicle: saline with Tween-80): 111 % of control
T/C (dose: 266.0 mg/kg/injection, schedule: Q04DX003 (ip), vehicle: other): 111 % of control
T/C (dose: 400.0 mg/kg/injection, schedule: Q04DX003 (ip), vehicle: saline with Tween-80): 100 % of control

CCOC(=O)CCN1CCCCC1
T/C (dose: 100.0 mg/kg/injection, schedule: Q01DX009 (ip), vehicle: saline): 96 % of control
T/C (dose: 100.0 mg/kg/injection, schedule: Q04DX003 (ip), vehicle: saline): 95 % of control
T/C (dose: 200.0 mg/kg/injection, schedule: Q01DX009 (ip), vehicle: saline): 89 % of control
T/C (dose: 200.0 mg/kg/injection, schedule: Q04DX003 (ip), vehicle: saline): 109 % of control
T/C (dose: 400.0 mg/kg/injection, schedule: Q01DX009 (ip), vehicle: saline): 107 % of control
T/C (dose: 400.0 mg/kg/injection, schedule: Q04DX003 (ip), vehicle: saline): 109 % of control

C[n+]1ccc(/C=C/c2ccc(Cl)c(Cl)c2)cc1
T/C (dose: 1.5 mg/kg/injection, schedule: Q01DX009 (ip), vehicle: Klucel (hydroxypropylcellulose) (HPC)): 95 % of control
T/C (dose: 3.0 mg/kg/injection, schedule: Q01DX009 (ip), vehicle: Klucel (hydroxypropylcellulose) (HPC)): 109 % of control
T/C (dose: 3.0 mg/kg/injection, schedule: Q04DX003 (ip), vehicle: Klucel (hydroxypropylcellulose) (HPC)): 100 % of control
T/C (dose: 6.0 mg/kg/injection, schedule: Q04DX003 (ip), vehicle: Klucel (hydroxypropylcellulose) (HPC)): 100 % of control

O=C(CO)c1ccc([N+](=O)[O-])cc1
T/C [3]: 106 % of control

O=C(NC(=O)c1c(F)cccc1F)Nc1ccc(Cl)c2ccccc12
T/C [2]: 91 % of control
T/C [3]: 100 % of control
T/C [4]: 90 % of control

CCC(C)(C)c1ccc(Oc2ccccc2)c(N)c1
T/C [17]: 109 % of control
T/C [18]: 113 % of control

Nc1nc(N)c(Nc2ccc(Cl)cc2)c(Cl)n1
T/C (dose: 100.0 mg/kg/injection, schedule: Q01DX001 (ip), vehicle: saline with Tween-80): 88 % of control
T/C (dose: 200.0 mg/kg/injection, schedule: Q01DX001 (ip), vehicle: saline with Tween-80): 89 % of control

CC1(C#N)CCC(CCc2ccccc2)C(=O)C1 (stereo not given)
T/C (dose: 75.0 mg/kg/injection, schedule: Q04DX003 (ip), vehicle: saline): 95 % of control
T/C (dose: 150.0 mg/kg/injection, schedule: Q04DX003 (ip), vehicle: saline): 87 % of control
T/C (dose: 300.0 mg/kg/injection, schedule: Q04DX003 (ip), vehicle: saline): 104 % of control
